# Patent US11147792B2, “Inhibitors of microbially induced amyloid” (Axial Therapeutics, Inc, priority 2017, dated 2021)
# Read-outs that look alike come from different tables or passages of the source.
# Experiments:
# Format in all cases: biochemical
# [1] = target: T1, α-synuclein seeded by E. coli CsgA (Homo sapiens, UniProt P37840); experiment: In vitro Thioflavin T assay of CsgA-seeded α-synuclein aggregation
# T1 construct: made in house; host or cells: E. coli NEB 3016 slyD::kan (CsgA, pET11d); E. coli (α-synuclein)
# Protocol: In Vitro Thioflavin T Assay to Determine the Effects of Compounds on CsgA-Seeded α-Synuclein Aggregation.
# To induce over-expression of CsgA, 0.5 mM IPTG was added to cultures with an optical density at 600 nm (OD600) of 0.8-1, and induced cells were cultured at 37° C. for 1 hour prior to harvest via centrifugation. […] Buffers with imidazole were freshly prepared prior to the protein purification. Purified CsgA was passed through a 30 kDa molecular weight cut-off filter and through a desalting column. All steps of the CsgA purification in the absence of guanidine hydrochloride were conducted in rapid succession with as little delay as possible. […] The ammonium sulfate pellet was washed with an equal volume of 100 mM ammonium acetate in ethanol, pelleted via centrifugation, washed twice with ethanol, dried overnight, resuspended in 10 mM Tris pH 7.4, and passed through a 50 kDa cut-off column. The assay was conducted in 96-well black microplates with a single glass 2 mm bead per well, 40 μM ThioflavinT, 1% DMSO, 2 μM CsgA, 50 μM α-synuclein, 100 mM sodium chloride, 9.3 mM potassium phosphate pH 7.3, and compounds at 50 μM. […] The effect of compounds on CsgA-seeded α-synuclein aggregation in the assay was determined with data from 40 hours, following the plateau of the fluorescent signal in the untreated (no compound) control wells containing CsgA and α-synuclein. Fluorescence values for each compound with CsgA and α-synuclein were first adjusted by subtracting the average fluorescence of the compound in the absence of CsgA and α-synuclein.
# [2] = target: T2, E. coli CsgA (Escherichia coli, UniProt P28307); experiment: In vitro ThioflavinT assay of CsgA aggregation; conditions: for Effect on CsgA aggregation (in words) / Inhibition of Aggregation CsgA (compound activity range): compounds at 20 μM; for inhibition at 20 µM / Inhibition of Aggregation CsgA (compound activity range): CsgA at 20 μM, ThT fluorescence at 18 hours; for Inhibition of Aggregation CsgA (compound activity range): 20 µM
# T2 construct: made in house; host or cells: E. coli NEB 3016 slyD::kan, pET11d
# T2 sequence (P28307 23-151): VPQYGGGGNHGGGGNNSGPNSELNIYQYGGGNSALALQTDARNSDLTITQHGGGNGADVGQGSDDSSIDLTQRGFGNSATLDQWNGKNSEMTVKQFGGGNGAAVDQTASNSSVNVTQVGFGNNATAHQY
# Protocol: In Vitro ThioflavinT Assay to Determine Effects of Compounds on CsgA Aggregation.
# To assess the effects of compounds on aggregation of E. coli CsgA, a cell-free assay was performed using purified CsgA and Thioflavin T. In the assay, histidine-tagged CsgA was over-expressed in E. coli NEB 3016 slyD::kan cells harboring a pET11d vector containing csgA with the sequence for 6 histidine residues added to the C-terminus and without the Sec signal (amino acid 1-22) sequence. To induce over-expression of CsgA, 0.5 mM isopropyl β-D-1-thiogalactopyranoside (“IPTG”) was added to cultures with an optical density at 600 nm (OD600) of 0.8-1, and induced cells were cultured at 37° C. for 1 hour prior to harvest via centrifugation. Cells were lysed under denaturing conditions with 8 M guanidine hydrochloride in 50 mM potassium phosphate buffer pH 7.3, and CsgA was purified via immobilized-metal affinity chromatography by batch purification with Nickel-NTA agarose and a combination of low pressure and gravity flow through a disposable polypropylene column, including washes under low pressure applied manually via application of a syringe plunger to the column with 50 mM potassium phosphate buffer pH 7.3 followed by 12.5 mM imidazole in 50 mM potassium phosphate buffer pH 7.3, and elution by gravity flow with 125 mM imidazole in 50 mM potassium phosphate buffer pH 7.3. Buffers with imidazole were freshly prepared prior to the protein purification. Purified CsgA was passed through a 30 kDa molecular weight cut-off filter and passed through a desalting column. All steps of the CsgA purification in the absence of guanidine hydrochloride were conducted in rapid succession with as little delay as possible. The assay was conducted in 96-well black microplates with 40 μM ThioflavinT, 1% DMSO, CsgA at 20 μM, and compounds at 20 μM. Plates were incubated at 25° C. in a Tecan Nano F200 plate reader with excitation at 438 nm using a 439 nm filter with a bandwidth of 8 nm, and emission at 495 nm with a 490 nm filter with a bandwidth of 10 nm. During the assay, plates were shaken initially for 5 seconds and subsequently for 3 seconds prior to fluorescent readings. Readings were performed every 20 minutes for up to 24 hours. The effect of compounds on CsgA aggregation in the assay was determined with data from 18 hours, following the plateau of the fluorescent signal in the untreated (no compound) control wells containing CsgA. Fluorescence values for each compound with CsgA were first adjusted by subtracting the average fluorescence of the compound in the absence of CsgA. These adjusted values were normalized by dividing them by the average fluorescence in the no-compound (i.e., untreated) control wells containing CsgA […], and the average normalized fluorescence with the compound was expressed as a percentage of the average fluorescence observed in untreated controls.
# [3] = target: T3, human α-synuclein (Homo sapiens, UniProt P37840); experiment: In vitro Thioflavin T assay of α-synuclein aggregation; conditions: for inhibition at 1 µM: compounds at 1 μM
# T3 construct: made in house; host or cells: E. coli
# Protocol: In Vitro Thioflavin T Assay to Determine the Effects of Compounds on α-Synuclein Aggregation.
# The ammonium sulfate pellet was washed with an equal volume of 100 mM ammonium acetate in ethanol, pelleted via centrifugation, washed twice with ethanol, dried overnight, resuspended in 10 mM Tris pH 7.4, and passed through a 50 kDa cut-off column. The assay was conducted in 96-well black microplates with a single 2 mm bead in each well, 40 μM ThioflavinT, 1% DMSO, 50 μM α-synuclein, 100 mM sodium chloride, 9.3 mM potassium phosphate pH 7.3, 4.6 mM Tris pH 7.4 (added as the solvent for α-synuclein or independently for controls lacking α-synuclein), and compounds at 1 μM or 50 μM. […] Readings were performed hourly for up to 73 hours. The effect of compounds on α-synuclein aggregation in the assay was determined with data from 40 hours, following the plateau of the fluorescent signal in the untreated (no compound) control wells containing α-synuclein. Fluorescence values for each compound with α-synuclein were first adjusted by subtracting the average fluorescence of the compound in the absence of α-synuclein.
# [4] = compounds at 50 μM, 2 μM CsgA, 50 μM α-synuclein, ThT fluorescence at 40 hours, read-out: Inhibition of Aggregation CsgA-seeded αSyn
# [5] = compounds at 50 μM, 2 μM CsgA, 50 μM α-synuclein, ThT fluorescence at 40 hours, read-out: Inhibition of Aggregation CsgA-seeded αSyn (compound activity range)
# [6] = read-out: Inhibition of Aggregation CsgA (compound activity range), compounds at 20 μM
# [7] = read-out: Inhibition of Aggregation CsgA, compounds at 20 μM
# [8] = read-out: Inhibition of Aggregation αSyn
# [9] = read-out: Inhibition of Aggregation αSyn (compound activity range)
# [10] = read-out: Inhibition of Aggregation CsgA-seeded αSyn
# [11] = read-out: Inhibition of Aggregation CsgA-seeded αSyn (compound activity range)
# [12] = compounds at 50 μM, 50 μM α-synuclein, ThT fluorescence at 40 hours, read-out: Inhibition of Aggregation αSyn
# [13] = compounds at 50 μM, 50 μM α-synuclein, ThT fluorescence at 40 hours, read-out: Inhibition of Aggregation αSyn (compound activity range)
# [14] = 50 μM α-synuclein, ThT fluorescence at 40 hours, read-out: Inhibition of Aggregation αSyn
# [15] = 50 μM α-synuclein, ThT fluorescence at 40 hours, read-out: Inhibition of Aggregation αSyn (compound activity range)
SMILES,"inhibition at 50 µM [1, 4] [%]",Effect on CsgA aggregation (in words) [2],"inhibition at 20 µM [2, 6] [%]","inhibition at 20 µM [2, 7] [%]","inhibition at 50 µM [3, 12] [%]","inhibition at 50 µM [3, 13] [%]","inhibition at 1 µM [3, 14] [%]","inhibition at 1 µM [3, 15] [%]",other results
"C=CCc1ccc(OC)c(OC)c1 [4-allyl-1,2-dimethoxy-benzene, 4-allyl-1,2-dimethoxybenzene]",36,without notable inhibition,< -10,-18,–,–,–,–,"Effect on CsgA-seeded α-synuclein aggregation (in words) ([1]; compounds at 50 μM): demonstrated inhibition; inhibition at 50 µM [1, 5]: 30 to 60%; Effect on α-synuclein aggregation (in words) ([3]; compounds at 50 μM): without notable inhibition; inhibition at 50 µM [3, 8]: 5%; inhibition at 50 µM [3, 9]: -10 to 10%"
"CCc1ccc(O)c(OC)c1 [4-ethyl guaiacol, 4-ethyl-2-methoxyphenol]",–,relatively strong enhancement of CsgA aggregation,–,-82,-2,-10 to 10,–,–,"inhibition at 50 µM [1, 10]: -10%; inhibition at 50 µM [1, 11]: 30 to 60%"
"Brc1cccc(-c2cc(-c3ccc4c(c3)OCO4)n[nH]2)c1 [Anle 138b, reference compound]",–,relatively little to no effect,-10 to 10,9,–,–,–,–,–
"CC(Cc1ccc(O)c(O)c1)C(C)Cc1ccc(O)c(O)c1 (centres unmarked) [NDGA, 4,4′-(2,3-dimethylbutane-1,4-diyl)dibenzene-1,2-diol]",39,–,10 to 30,23,54,30 to 60,–,–,–
"O=c1cc(-c2ccc(O)cc2)oc2cc(O)cc(O)c12 [apigenin, 5,7-dihydroxy-2-(4-hydroxyphenyl)-4H-1-benzopyran-4-one]",–,–,–,–,–,–,56,30 to 60,–
"Cc1ccc(C(C)C)cc1O [carvacrol, 2-methyl-5-(propan-2-yl)phenol]",–,–,–,-20,–,–,–,–,"inhibition at 50 µM [1, 10]: -2%; Inhibition of Aggregation CsgA (compound activity range) [2]: − ((−) is between −10% to 10% inhibition); inhibition at 50 µM [3, 8]: 2%; inhibition at 50 µM [3, 9]: -10 to 10%"
"COc1cc(/C=C/C(=O)/C=C(O)/C=C/c2ccc(O)c(OC)c2)ccc1O [curcumin, (1E,6E)-1,7-Bis(4-hydroxy-3-methoxyphenyl)hepta-1,6-diene-3,5-dione]",86,–,–,–,–,–,–,–,"inhibition at 50 µM [3, 8]: 89%; inhibition at 50 µM [3, 9]: > 60%"
"C=CCc1ccc(O)c(OC)c1 [eugenol, 2-methoxy-4-(prop-2-en-1-yl)phenol]",–,without notable inhibition,–,-10,–,–,–,–,"Effect on CsgA-seeded α-synuclein aggregation (in words) ([1]; compounds at 50 μM): demonstrated inhibition; inhibition at 50 µM [1, 10]: 42%; inhibition at 50 µM [1, 11]: 30 to 60%; Effect on α-synuclein aggregation (in words) ([3]; compounds at 50 μM): without notable inhibition; inhibition at 50 µM [3, 8]: -1%; inhibition at 50 µM [3, 9]: -10 to 10%"
"O=C(O)c1cc(O)c(O)c(O)c1 [gallic acid, 3,4,5-trihydroxybenzoic acid]",63,–,> 60,82,99,> 60,–,–,Inhibition of Aggregation CsgA (compound activity range) [2]: (++) to (+++)
"O=c1c(-c2ccc(O)cc2)coc2cc(O)cc(O)c12 [genistein, 5,7-dihydroxy-3-(4-hydroxyphenyl)chromen-4-one]",–,–,–,–,–,–,40,30 to 60,–
"COc1ccccc1O [guaiacol, 2-methoxyphenol]",40,without notable inhibition,-10 to 10,-5,-2,-10 to 10,–,–,"Effect on CsgA-seeded α-synuclein aggregation (in words) ([1]; compounds at 50 μM): demonstrated inhibition; inhibition at 50 µM [1, 5]: 30 to 60%; Effect on α-synuclein aggregation (in words) ([3]; compounds at 50 μM): without notable inhibition"
"C/C=C/c1ccc(O)c(OC)c1 [isoeugenol, 2-methoxy-4-(prop-1-en-1-yl)phenol]",35,without notable inhibition,-10 to 10,-4,9,-10 to 10,–,–,"Effect on CsgA-seeded α-synuclein aggregation (in words) ([1]; compounds at 50 μM): demonstrated inhibition; inhibition at 50 µM [1, 5]: 30 to 60%; Effect on α-synuclein aggregation (in words) ([3]; compounds at 50 μM): without notable inhibition"
"O=c1c(O)c(-c2ccc(O)c(O)c2)oc2cc(O)cc(O)c12 [quercetin, 2-(3,4-dihydroxyphenyl)-3,5,7-trihydroxychromen-4-one]",–,–,30 to 60,33,–,–,99,> 60,–
"Oc1ccc(/C=C/c2cc(O)cc(O)c2)cc1 [resveratrol, (E)-5-(4-hydroxystyryl)benzene-1,3-diol]",–,–,> 60,62,–,–,86,> 60,Inhibition of Aggregation CsgA (compound activity range) [2]: (+++) to (++)
O=C(/C=C/c1ccc(O)c(O)c1)O[C@H](Cc1ccc(O)c(O)c1)C(=O)O [rosmarinic acid],–,–,30 to 60,48,–,–,99,> 60,–
